Patent US20120238767A1, “ANTIOXIDANT INFLAMMATION MODULATORS: NOVEL DERIVATIVES OF OLEANOLIC ACID” (priority 2008, published 2012)

Assays:
RAW264.7 macrophages = assay: Cell viability (WST-1 reagent); assay type: cell-based, mouse; details: RAW264.7, 20 ng/ml IFNγ
Description: (§1) FIGS. 1-11 and 22. Inhibition of NO Production. RAW264.7 macrophages were pre-treated with DMSO or drugs at various concentrations (nM) for 2 hours, then treated with 20 ng/ml IFNγ for 24 hours. NO concentration in media was determined using a Griess reagent system; cell viability was determined using WST-1 reagent. Nitric Oxide production and cell viability. RAW264.7 macrophages were pre-treated with DMSO or drugs for 2 hours, then treated with recombinant mouse IFNγ (Sigma) for 24 hours. NO concentration in media was determined using the Griess reagent system (Promega). Cell viability was determined using WST-1 reagent (Roche).

[1] = test system: IFNγ-induced NO production in RAW264.7 macrophages; assay: Suppression of IFNγ-induced NO production (Griess reagent); assay type: cell-based, mouse; details: RAW264.7, 20 ng/ml IFNγ for 24 hours, 2 hours pre-treatment
Description: as §1

Structure (SMILES)	IC50 (RAW264.7 macrophages; Mus musculus) [nM]	IC50 ([1]; Mus musculus) [nM]	IC50 (RAW264.7 macrophages) [nM]	IC50 [1] [nM]
COC(=O)[C@]12CCC(C)(C)C[C@H]1[C@H]1C(=O)C=C3[C@@]4(C)[C@@H](O)[C@](O)(C#N)C(=O)C(C)(C)[C@@H]4CC[C@@]3(C)[C@]1(C)CC2 [Compound 63316, (4aS,6aR,6bS,8aR,11R,12R,12aS,14aR,14bS)-methyl 11-cyano-11,12-dihydroxy-2,2,6a,6b,9,9,12a-heptamethyl-10,14-dioxo-1,2,3,4,4a,5,6,6a,6b,7,8,8a,9,10,11,12,12a,14,14a,14b-icosahydropicene-4a-carboxylate]	> 200	~80	–	–
CONC(=O)[C@]12CCC(C)(C)C[C@H]1[C@H]1C(=O)C=C3[C@@]4(C)C=C(C#N)C(=O)C(C)(C)[C@@H]4CC[C@@]3(C)[C@]1(C)CC2 [Compound 402-10, (4aS,6aR,6bS,8aR,12aS,14aR,14bS)-11-cyano-N-methoxy-2,2,6a,6b,9,9,12a-heptamethyl-10,14-dioxo-1,2,3,4,4a,5,6,6a,6b,7,8,8a,9,10,12a,14,14a,14b-octadecahydropicene-4a-carboxamide]	> 200	2.3	–	–
COC(=O)[C@]12CCC(C)(C)C[C@H]1[C@H]1C(=O)C=C3[C@@]4(C)C=C(C#N)C(=O)C(C)(C)[C@@H]4[C@H](O)C[C@@]3(C)[C@]1(C)CC2 [Compound 63307, (4aS,6aR,6bS,8R,8aR,12aS,14aR,14bS)-methyl 11-cyano-8-hydroxy-2,2,6a,6b,9,9,12a-heptamethyl-10,14-dioxo-1,2,3,4,4a,5,6,6a,6b,7,8,8a,9,10,12a,14,14a,14b-octadecahydropicene-4a-carboxylate]	> 200	~60	–	–
COC(=O)[C@]12CCC(C)(C)C[C@H]1[C@H]1C(=O)C=C3[C@@]4(C)C=C(C(F)(F)F)C(=O)C(C)(C)[C@@H]4CC[C@@]3(C)[C@]1(C)CC2 [Compound 63320, (4aS,6aR,6bS,8aR,12aS,14aR,14bS)-methyl 2,2,6a,6b,9,9,12a-heptamethyl-10,14-dioxo-11-(trifluoromethyl)-1,2,3,4,4a,5,6,6a,6b,7,8,8a,9,10,12a,14,14a,14b-octadecahydropicene-4a-carboxylate]	–	~12	–	–
CC1(C)CC[C@]2(C(=O)N=[N+]=[N-])CC[C@]3(C)[C@H](C(=O)C=C4[C@@]5(C)C=C(C#N)C(=O)C(C)(C)[C@@H]5CC[C@]43C)[C@@H]2C1 [Compound 402-11, (4aS,6aR,6bS,8aR,12aS,14aR,14bS)-11-cyano-2,2,6a,6b,9,9,12a-heptamethyl-10,14-dioxo-1,2,3,4,4a,5,6,6a,6b,7,8,8a,9,10,12a,14,14a,14b-octadecahydropicene-4a-carbonyl azide]	150	2.5	–	–
COC(=O)[C@]12CCC(C)(C)C[C@H]1[C@H]1C(=O)C=C3[C@@]4(C)C=C(C#N)C(=O)C(C)(C)[C@@H]4C(=O)C[C@@]3(C)[C@]1(C)CC2 [Compound 63309, (4aS,6aR,6bS,8aR,12aS,14aR,14bS)-methyl 11-cyano-2,2,6a,6b,9,9,12a-heptamethyl-8,10,14-trioxo-1,2,3,4,4a,5,6,6a,6b,7,8,8a,9,10,12a,14,14a,14b-octadecahydropicene-4a-carboxylate]	> 200	~12	–	–
COC(=O)[C@]12CCC(C)(C)C[C@H]1[C@H]1C(=O)C=C3[C@@]4(C)C=C(c5nnn[nH]5)C(=O)C(C)(C)[C@@H]4CC[C@@]3(C)[C@]1(C)CC2 [Compound 402-06, (4aS,6aR,6bS,8aR,12aS,14aR,14bS)-methyl-2,2,6a,6b,9,9,12a-heptamethyl-10,14-dioxo-11-(1H-tetrazol-5-yl)-1,2,3,4,4a,5,6,6a,6b,7,8,8a,9,10,12a,14,14a,14b-octadecahydropicene-4a-carboxylate]	> 200	> 200	–	–
COCOC[C@@]1(C)C(=O)C(C#N)=C[C@]2(C)C3=CC(=O)[C@@H]4[C@@H]5CC(C)(C)CC[C@]5(C(=O)OC)CC[C@@]4(C)[C@]3(C)CC[C@@H]12 [Compound 63302, (4aS,6aR,6bS,8aR,9S,12aS,14aR,14bS)-methyl 11-cyano-9-((methoxymethoxy)methyl)-2,2,6a,6b,9,12a-hexamethyl-10,14-dioxo-1,2,3,4,4a,5,6,6a,6b,7,8,8a,9,10,12a,14,14a,14b-octadecahydropicene-4a-carboxylate]	~100	~18	–	–
COC(=O)[C@]12CCC(C)(C)C[C@H]1[C@H]1C(=O)C=C3[C@@]4(C)C=C(C#N)C(=O)[C@](C)(CO)[C@@H]4CC[C@@]3(C)[C@]1(C)CC2 [Compound 63301, (4aS,6aR,6bS,8aR,9S,12aS,14aR,14b5)-methyl 11-cyano-9-(hydroxymethyl)-2,2,6a,6b,9,12a-hexamethyl-10,14-dioxo-1,2,3,4,4a,5,6,6a,6b,7,8,8a,9,10,12a,14,14a,14b-octadecahydropicene-4a-carboxylate]	~120	~3.2	–	–
CC1(C)CC[C@]2(C(=O)NO)CC[C@]3(C)[C@H](C(=O)C=C4[C@@]5(C)C=C(C#N)C(=O)C(C)(C)[C@@H]5CC[C@]43C)[C@@H]2C1 [Compound 402-09, (4aS,6aR,6bS,8aR,12aS,14aR,14bS)-11-cyano-N-hydroxy-2,2,6a,6b,9,9,12a-heptamethyl-10,14-dioxo-1,2,3,4,4a,5,6,6a,6b,7,8,8a,9,10,12a,14,14a,14b-octadecahydropicene-4a-carboxamide]	> 200	4.2	–	–
COC(=O)[C@]12CCC(C)(C)C[C@H]1[C@H]1C(=O)C=C3[C@@]4(C)C=C(F)C(=O)C(C)(C)[C@@H]4CC[C@@]3(C)[C@]1(C)CC2 [Compound 402-05, (4aS,6aR,6bS,8aR,12aR,14aR,14b5)-methyl-11-fluoro-2,2,6a,6b,9,9,12a-heptamethyl-10,14-dioxo-1,2,3,4,4a,5,6,6a,6b,7,8,8a,9,10,12a,14,14a,14b-octadecahydropicene-4a-carboxylate]	–	–	> 200	> 200
CC1(C)CC[C@]2(C(=O)F)CC[C@]3(C)[C@H](C(=O)C=C4[C@@]5(C)C=C(C#N)C(=O)C(C)(C)[C@@H]5CC[C@]43C)[C@@H]2C1 [Compound 402-55, (4aS,6aR,6bS,8aR,12aS,14aR,14bS)-11-cyano-2,2,6a,6b,9,9,12a-heptamethyl-10,14-dioxo-1,2,3,4,4a,5,6,6a,6b,7,8,8a,9,10,12a,14,14a,14b-octadecahydropicene-4a-carbonyl fluoride]	100	~3	–	–
COC(=O)[C@]12CCC(C)(C)C[C@H]1[C@H]1C(=O)C=C3[C@@]4(C)C(C)=C(C#N)C(=O)C(C)(C)[C@@H]4CC[C@@]3(C)[C@]1(C)CC2 [Compound 402-22, (4 aS,6aR,6bS,8aR,12 aR,14 aR,14bS)-methyl-11-cyano-2,2,6a,6b,9,9,12,12a-octamethyl-10,14-dioxo-1,2,3,4,4a,5,6,6a,6b,7,8,8a,9,10,12a,14,14a,14b-octadecahydropicene-4a-carboxylate]	> 200	> 200	–	–
COC(=O)[C@]12CCC(C)(C)C[C@H]1[C@H]1C(=O)C=C3[C@@]4(C)CC(C#N)=C(OC(C)=O)C(C)(C)[C@@H]4CC[C@@]3(C)[C@]1(C)CC2 [Compound 402-47, (4aS,6aR,6bS,8aR,12aS,14aR,14bS)-methyl-10-acetoxy-11-cyano-2,2,6a,6b,9,9,12a-heptamethyl-14-oxo-1,2,3,4,4a,5,6,6a,6b,7,8,8a,9,12,12a,14,14a,14b-octadecahydropicene-4a-carboxylate]	> 200	> 200	–	–
